Measured values reported in US20030186339A1, “Individualization of therapy with antibiotic agents” (McGill University, priority 2001, published 2003).
Like-named read-outs stand apart in the source and are kept apart here. Marks after values point to notes of the source that are not given here.

What was measured:
AAMU-Ab = assay: Competitive antigen ELISA, cross-reactivity of AAMU-Ab; format: binding, rabbit; conditions: for % Cross-Reaction AAMU-Ab: competitive antigen ELISA, 0 = absence of inhibition or inhibition no higher than 40% at highest concentration tested (5×10^−3 M)
Procedure: (§1) Competitive Antigen ELISA
(§2) Buffers and water without additives are filtered through millipore filters and kept for 1 week. BSA, antibodies, Tween™ 20 and horse radish peroxidase conjugates are added to these buffers and water just prior to use. Urine samples are usually collected 4 hours after drinking a cup of coffee (instant or brewed with approximately 100 mg of caffeine per cup) and stored at −80° C. The urine samples are diluted 10 times with sodium phosphate buffer (620 mosm, pH 7.50) and are subsequently diluted with water to give concentrations of AAMU and 1X no higher than 3×10^−6 M in the ELISA. All the pipettings are done with an eight-channel pipette, except those of the antibody and sample solutions. Starting with the last well, 100 μL of a carbonate buffer (100 mM, pH 9.6) containing 2.5 μg mL-1 antibodies are added to each well. After 90 min. at room temperature, the wells are washed three times with […] of TPB: isotonic sodium phosphate buffer (310 mosm, pH 7.50) containing 0.05% Tween™ 20.
(§3) After the initial wash, unoccupied sites are blocked by incubation for 90 min. at room temperature with 100 μL TBP containing 3% BSA. The wells are washed four times with 100 μL TPB. […] The microplate is gently shaken with an orbital shaker at room temperature for 3-4 hours. The wells are washed three times with 100 μL TPB containing 1% BSA and three times with water containing 0.05% Tween™ 20. To the washed plate is added 150 μL of a substrate buffer composed of citric acid (25 mM) and sodium phosphate dibasic buffer (50 mM, pH 5.0) containing 0.06% hydrogen peroxide and 0.04% o-phenylenediamine hydrochloride.
(§4) Buffers and water without additives were filtered through millipore filters and kept for 1 week. BSA, antibodies, Tween™ 20 and horse radish peroxidase conjugates were added to these buffers and water just prior to use. Urine samples were usually collected 4 hours after drinking a cup of coffee (instant or brewed with approximately 100 mg of caffeine per cup) and stored at −80° C. They were diluted 10 times with sodium phosphate buffer (620 mosm, pH 7.50) and were subsequently diluted with water to give concentrations of AAMU and 1X no higher than 3×10^−6 M in the ELISA. All the pipettings were done with an eight-channel pipette, except those of the antibody and sample solutions. Starting with the last well, 100 μL of a carbonate buffer (100 mM, pH 9.6) containing 2.5 μg mL-1 antibodies was pipetted. After 90 min. at room temperature, the wells were washed three times with 100 μL of TPB: isotonic sodium phosphate buffer (310 mosm, pH 7.50) containing 0.05% Tween™ 20.
(§5) After the initial wash, unoccupied sites were blocked by incubation for 90 min. at room temperature with […] TBP containing 3% BSA. The wells were washed four times with 100 μL TPB. […] The microplate was gently shaken with an orbital shaker at room temperature for 3-4 hours. The wells were washed three times with 100 μL with TPB containing 1% BSA and three times with water containing 0.05% Tween™ 20. To the washed plate was added 150 μL of a substrate buffer composed of citric acid (25 mM) and sodium phosphate dibasic buffer (50 mM, pH 5.0) containing 0.06% hydrogen peroxide and 0.04% o-phenylenediamine hydrochloride. After 20 min. at room temperature with shaking, the reaction was stopped with 50 μL of 2.5 N HCl.
(§6) The cross reactivities of AAMU-Ab and 1X-Ab were tested using a wide variety of caffeine metabolites and structural analogs (Table 2 below).

1X-Ab = assay: Competitive antigen ELISA, cross-reactivity of 1X-Ab; format: binding, rabbit; conditions: for % Cross-Reaction 1X-Ab: competitive antigen ELISA, 0 = absence of inhibition or inhibition no higher than 40% at highest concentration tested (5×10^−3 M)
Procedure: as §1, §2, §3, §4, §5, §6

[1] = cited from earlier work
[2] = cited from earlier work; remark: listed apart in the source
[3] = healthy volunteers; cited from earlier work
S. pneumoniae = conditions: once a day for 10 days, acute bacterial exacerbation of chronic bronchitis; cited from earlier work

| SMILES | % Cross-Reaction AAMU-Ab (AAMU-Ab) | % Cross-Reaction 1X-Ab (1X-Ab) [%] | further results |
| --- | --- | --- | --- |
| O=c1[nH]cnc2nc[nH]c12 [Hypoxanthine] | 0% | 0 | – |
| O=C(N[C@H](CO)[C@H](O)c1ccc([N+](=O)[O-])cc1)C(Cl)Cl [Chloramphenicol] | – | – | CSF concentrations as % of serum levels ([1]; human, in vivo): 30-50% |
| Nc1nc2nc[nH]c2c(=O)[nH]1 [Guanine] | 0% | 0 | – |
| CC(=O)Nc1c(N)n(C)c(=O)[nH]c1=O [5-Acetamino-6-amino-1-methyluracil] | 100% | 0 | IC50 (AAMU-Ab; read-out: concentration required for 50% inhibition in the competitive antigen ELISA, AAMU-Ab, AAMU-HRP conjugate): 1.5 µM |
| Cn1cnc2[nH]c(=O)[nH]c(=O)c21 [7-Methyl Xanthine] | 0% | 0 | – |
| Nc1ccc(S(=O)(=O)c2ccc(N)cc2)cc1 [dapsone] | – | – | adverse reactions to dapsone ([2]; fast acetylators): 17%; adverse reactions to dapsone ([2]; slow acetylators): 46% |
| Cc1nc2[nH]c(=O)[nH]c(=O)c2[nH]1 [8-Methyl Xanthine] | 0% | 0 | – |
| CC(=O)Nc1c(N)[nH]c(=O)[nH]c1=O [5-Acetamino-6-amino-uracil] | 0.6% | 0 | – |
| Cn1c(=O)[nH]c(=O)c2[nH]cnc21 [3-Methyl Xanthine] | 0% | 0 | – |
| CC1(C)S[C@@H]2[C@H](NC(=O)Cc3ccccc3)C(=O)N2[C@H]1C(=O)O.CC1(C)S[C@@H]2[C@H](NC(=O)Cc3ccccc3)C(=O)N2[C@H]1C(=O)O.c1ccc(CNCCNCc2ccccc2)cc1 [Benzathine penicillin G] | – | – | duration of low sustained serum levels of penicillin G ([1]; human, in vivo): 1-3 weeks |
| Cn1c(=O)[nH]c2ncn(C)c2c1=O [1,7-Dimethyl Xanthine (Paraxanthine), 1,7-Dimethyl Xanthine] | 0% | 0.5 | – |
| Cn1c(=O)[nH]c2[nH]c(=O)[nH]c2c1=O [1-Methyluric acid] | 0% | 11 | – |
| Cn1c(=O)c2[nH]cnc2n(C)c1=O [1,3-Dimethyl Xanthine (Theophylline), 1,3-Dimethyl Xanthine] | 0% | 0.2 | – |
| O=c1[nH]c(=O)c2[nH]c(=O)[nH]c2[nH]1 [Uric acid] | 0% | 0 | – |
| Cn1cnc2c1c(=O)[nH]c(=O)n2C [3,7-Dimethyl Xanthine (Theobromine), 3,7-Dimethyl Xanthine] | 0% | 0 | – |
| O=c1cc[nH]c(=O)[nH]1 [Uracil] | 0% | 0 | – |
| C[C@H]1c2cccc(O)c2C(=O)C2=C(O)[C@]3(O)C(=O)C(C(N)=O)=C(O)[C@@H](N(C)C)[C@@H]3[C@@H](O)[C@@H]21 [Doxycycline] | – | – | serum half-life ([1]; human, in vivo): 17 to 20 h |
| Cn1c(=O)[nH]c2[nH]c(=O)n(C)c2c1=O [1,7-Dimethyluric acid] | 0% | 0 | – |
| Cn1c(=O)c2c(ncn2C)n(C)c1=O [1,3,7-Trimethyl Xanthine (Caffeine), 1,3,7-Trimethyl Xanthine] | 0% | 0 | – |
| O=c1[nH]c(=O)c2[nH]cnc2[nH]1 [Xanthine] | 0^a % | 0 | – |
| CC(=O)Nc1c(N)n(C)c(=O)n(C)c1=O [5-Acetamino-6-amino-1,3-dimethyluracil] | 0% | 0 | – |
| Cn1c(=O)[nH]c2nc[nH]c2c1=O [1-Methyl Xanthine (1X), 1-Methyl Xanthine] | 0% | 100 | IC50 (1X-Ab; read-out: concentration required for 50% inhibition in the competitive antigen ELISA, 1X-Ab, 1X-HRP conjugate): 10 µM |
| Cc1c(F)c(N2CCNC(C)C2)cc2c1c(=O)c(C(=O)O)cn2C1CC1 (stereo not drawn) [Grepafloxacin, grepafloxacin] | – | – | time to peak plasma drug concentration after dosing ([1]; human, in vivo): 2 to 3 h; time to steady state concentrations ([1]; once-a-day dosing): ≤ 7 days; bioavailability ([1]; oral): approximately 70%; effect on QTc interval [3]: Prolongation of the QTc Intervals has been observed; effectiveness against S. pneumoniae, 400 mg per day vs 600 mg per day (S. pneumoniae): may be less effective |
